Measured values as given in US20060040871A1, “Bacterial transforming agent” (priority 2003, published 2006).
Read-outs that look alike come from different tables or passages of the source.

Assays:
VRE = assay: Antimicrobial plus BTA against VRE (Table 7); format: cell-based, enterococci; details: +BTA 1.0%
S. aureus = assay: MIC of methicillin for already sensitive S. aureus with GBE, with or without 1% human plasma (Table 6); format: cell-based, Staphylococcus aureus; details: for MIC of methicillin: GBE 0.00075M [0.15%]
Description: As previously mentioned, a common cause of auto-infection is due to S. aureus carried on the anterior nares. […] The transforming agents of the present invention may also be used in combination with a suitable antimicrobial to eliminate nasal carriage of MSSA prior to cardiac surgery or other invasive procedures carrying a high risk of auto-infection.

[1] = test system: MRSA with intermediate resistance to glycopeptides; assay: MIC of vancomycin or teicoplanin for MRSA with intermediate resistance to glycopeptides grown with GBE or NAGly (Table 4); format: cell-based, Staphylococcus aureus; details: GBE 0.001M; for MIC: Staphylococcus aureus
MRSA [2] = assay: MIC of ceftazidime or cefuroxime for MRSA grown with or without GBE (Table 2); format: cell-based, Staphylococcus aureus; details: for MIC of ceftazidime / MIC of cefuroxime: GBE (0.2%)
Description: Importantly, the usefulness of the agents of the present invention is not limited to increasing bacterial sensitivity to methicillin.

MRSA [3] = assay: Antimicrobial plus BTA against recent clinical MRSA isolates (Table 7); format: cell-based, Staphylococcus aureus
Description: The four clinical isolates were isolated from patients during the first three months of 2003. […] An intermediate MRSA has been included, as methicillin-resistance has been achieved by means other than production of PBP2a.

NCC(=O)OCc1ccccc1 [GBE, Glycine Benzyl Ester]
Vancomycin (antimicrobial plus BTA; quantity not named, MIC implied) (VRE): 64 mg/L | MIC of methicillin (S. aureus; 5518 (EMRSA-1), no plasma): <0.25 mg/L | MIC of methicillin (S. aureus; 5518 (EMRSA-1), plasma (1%)): 0.5 mg/L | MIC of methicillin (S. aureus; LHS77, no plasma): <0.25 mg/L | MIC of methicillin (S. aureus; LHS77, plasma (1%)): <0.25 mg/L | MIC of methicillin (S. aureus; LHS78, no plasma): <0.25 mg/L | MIC of methicillin (S. aureus; LHS78, plasma (1%)): 1 mg/L | MIC of methicillin (S. aureus; LHS79, no plasma): <0.25 mg/L | MIC of methicillin (S. aureus; LHS79, plasma (1%)): 0.25 mg/L | MIC of methicillin (S. aureus; LHS80, no plasma): <0.25 mg/L | MIC of methicillin (S. aureus; LHS80, plasma (1%)): 0.25 mg/L | MIC of methicillin (S. aureus; LHS81, no plasma): <0.25 mg/L | MIC of methicillin (S. aureus; LHS81, plasma (1%)): <0.25 mg/L | MIC of methicillin (S. aureus; LHS82, no plasma): <0.25 mg/L | MIC of methicillin (S. aureus; LHS82, plasma (1%)): 4 mg/L | MIC of methicillin (S. aureus; LHS83, no plasma): <0.25 mg/L | MIC of methicillin (S. aureus; LHS83, plasma (1%)): 0.25 mg/L | MIC of methicillin (S. aureus; LHS84, no plasma): <0.25 mg/L | MIC of methicillin (S. aureus; LHS84, plasma (1%)): 2 mg/L | MIC of methicillin (S. aureus; LHS85, no plasma): <0.25 mg/L | MIC of methicillin (S. aureus; LHS85, plasma (1%)): 0.5 mg/L | MIC of methicillin (S. aureus; LHS86, no plasma): <0.25 mg/L | MIC of methicillin (S. aureus; LHS86, plasma (1%)): 0.25 mg/L | MIC of methicillin (S. aureus; LHS87, no plasma): <0.25 mg/L | MIC of methicillin (S. aureus; LHS87, plasma (1%)): 4 mg/L | MIC of methicillin (S. aureus; LHS88, no plasma): <0.25 mg/L | MIC of methicillin (S. aureus; LHS88, plasma (1%)): 0.5 mg/L | MIC of methicillin (S. aureus; LHS89, no plasma): <0.25 mg/L | MIC of methicillin (S. aureus; LHS89, plasma (1%)): 0.5 mg/L | MIC of methicillin (S. aureus; LHS90, no plasma): <0.25 mg/L | MIC of methicillin (S. aureus; LHS90, plasma (1%)): <0.25 mg/L | MIC of methicillin (S. aureus; LHS91, no plasma): <0.25 mg/L | MIC of methicillin (S. aureus; LHS91, plasma (1%)): <0.25 mg/L | MIC of methicillin (S. aureus; LHS92, no plasma): <0.25 mg/L | MIC of methicillin (S. aureus; LHS92, plasma (1%)): 1 mg/L | MIC of methicillin (S. aureus; LHS93, no plasma): <0.25 mg/L | MIC of methicillin (S. aureus; LHS93, plasma (1%)): 0.5 mg/L | MIC of methicillin (S. aureus; LHS94, no plasma): <0.25 mg/L | MIC of methicillin (S. aureus; LHS94, plasma (1%)): 0.5 mg/L | effect on methicillin sensitivity of already sensitive bacteria (S. aureus; Table 6): increases the sensitivity of already sensitive bacteria to methicillin | MIC of vancomycin ([1]; L266 (first line), EMRSA-17 (VISA)): 2 mg/L | MIC of vancomycin ([1]; L266 (second line), EMRSA-17 (VISA)): 1 mg/L | MIC of vancomycin ([1]; NCTC 12493): 0.12 mg/L | MIC ([1]; MRSA / NCTC 12493, read-out: MIC of teicoplanin, NCTC 12493): 0.06 mg/L | MIC ([1]; MRSA, read-out: MIC of teicoplanin, L265, EMRSA-16 (TISA)): 1 mg/L | MIC ([1]; MRSA, read-out: MIC of teicoplanin, L266, EMRSA-16 (TISA)): 2 mg/L | MIC of ceftazidime (MRSA [2]; CD40 (EMRSA-1)): 4 mg/L | MIC of cefuroxime (MRSA [2]; CD40 (EMRSA-1)): 2 mg/L | MIC of ceftazidime (MRSA [2]; DS09 (EMRSA-1)): 2 mg/L | MIC of cefuroxime (MRSA [2]; DS09 (EMRSA-1)): 2 mg/L | MIC of ceftazidime (MRSA [2]; E15-97 (EMRSA-15)): 4 mg/L | MIC of cefuroxime (MRSA [2]; E15-97 (EMRSA-15)): 4 mg/L | MIC of ceftazidime (MRSA [2]; E16-96 (EMRSA-16)): 2 mg/L | MIC of cefuroxime (MRSA [2]; E16-96 (EMRSA-16)): 4 mg/L | MIC of ceftazidime (MRSA [2]; JF1-32 (EMRSA-1)): 2 mg/L | MIC of cefuroxime (MRSA [2]; JF1-32 (EMRSA-1)): 2 mg/L | MIC of ceftazidime (MRSA [2]; MC01 (EMRSA-1)): 2 mg/L | MIC of cefuroxime (MRSA [2]; MC01 (EMRSA-1)): 4 mg/L | MIC of ceftazidime (MRSA [2]; NCTC 12493): 2 mg/L | MIC of cefuroxime (MRSA [2]; NCTC 12493): 4 mg/L | MIC of ceftazidime (MRSA [2]; PS3-32 (EMRSA-1)): 4 mg/L | MIC of cefuroxime (MRSA [2]; PS3-32 (EMRSA-1)): 4 mg/L | MIC of ceftazidime (MRSA [2]; SN31 (EMRSA-1)): 4 mg/L | MIC of cefuroxime (MRSA [2]; SN31 (EMRSA-1)): 4 mg/L | MIC of ceftazidime (MRSA [2]; ST11 (EMRSA-1)): 2 mg/L | MIC of cefuroxime (MRSA [2]; ST11 (EMRSA-1)): 2 mg/L | MIC of ceftazidime (MRSA [2]; SW2-32 (EMRSA-1)): 4 mg/L | MIC of cefuroxime (MRSA [2]; SW2-32 (EMRSA-1)): 4 mg/L | transformation to ceftazidime and cefuroxime sensitivity (MRSA [2]; Table 2): transforms the MRSA tested to ceftazidime and cefuroxime sensitivity | Oxacillin (antimicrobial plus BTA; quantity not named, MIC implied) (MRSA [3]; EMRSA-16, +BTA 0.01%): 4 mg/L | Cephalexin (antimicrobial plus BTA; quantity not named, MIC implied) (MRSA [3]; EMRSA-16, +BTA 0.1%): 2 mg/L | Oxacillin (antimicrobial plus BTA; quantity not named, MIC implied) (MRSA [3]; EMRSA-16, +BTA 0.1%): 2 mg/L | Cephalexin (antimicrobial plus BTA; quantity not named, MIC implied) (MRSA [3]; EMRSA-16, +BTA 1.0%): 1 mg/L | Oxacillin (antimicrobial plus BTA; quantity not named, MIC implied) (MRSA [3]; EMRSA-16, +BTA 1.0%): 1 mg/L | Vancomycin (antimicrobial plus BTA; quantity not named, MIC implied) (MRSA [3]; EMRSA-16, +BTA 1.0%): 0.25 mg/L | Oxacillin (antimicrobial plus BTA; quantity not named, MIC implied) (MRSA [3]; EMRSA-17, +BTA 0.01%): 6 mg/L | Cephalexin (antimicrobial plus BTA; quantity not named, MIC implied) (MRSA [3]; EMRSA-17, +BTA 0.1%): 2 mg/L | Oxacillin (antimicrobial plus BTA; quantity not named, MIC implied) (MRSA [3]; EMRSA-17, +BTA 0.1%): 2 mg/L | Cephalexin (antimicrobial plus BTA; quantity not named, MIC implied) (MRSA [3]; EMRSA-17, +BTA 1.0%): 1.5 mg/L | Oxacillin (antimicrobial plus BTA; quantity not named, MIC implied) (MRSA [3]; EMRSA-17, +BTA 1.0%): 1.5 mg/L | Vancomycin (antimicrobial plus BTA; quantity not named, MIC implied) (MRSA [3]; EMRSA-17, +BTA 1.0%): 0.25 mg/L | Oxacillin (antimicrobial plus BTA; quantity not named, MIC implied) (MRSA [3]; I-MRSA, +BTA 0.01%): 2 mg/L | Cephalexin (antimicrobial plus BTA; quantity not named, MIC implied) (MRSA [3]; I-MRSA, +BTA 0.1%): 1 mg/L | Oxacillin (antimicrobial plus BTA; quantity not named, MIC implied) (MRSA [3]; I-MRSA, +BTA 0.1%): 1 mg/L | Cephalexin (antimicrobial plus BTA; quantity not named, MIC implied) (MRSA [3]; I-MRSA, +BTA 1.0%): 0.75 mg/L | Oxacillin (antimicrobial plus BTA; quantity not named, MIC implied) (MRSA [3]; I-MRSA, +BTA 1.0%): 0.75 mg/L | Vancomycin (antimicrobial plus BTA; quantity not named, MIC implied) (MRSA [3]; I-MRSA, +BTA 1.0%): < 0.25 mg/L
